Results as given in patent US20250353891A1 (MEDIMMUNE LIMITED, priority 2022, published 2025).
Each block holds one compound with its values, some of them ahead of it. Starred links: 1 amine or outer side, 2 acyl side, 3 side chain; linkers in the order of their positions; H or OH if unused. Non-standard residues stand in square brackets, D forms with d. Residues, ends and D or L forms follow the SMILES beside them. Groups on a side chain read outwards from the residue. *: point of attachment. C20 diacid = O=C(O)CCCCCCCCCCCCCCCCCCC(=O)*; X2 = CC(C)(CC(N)=O)[C@H](N[*:1])C(=O)[*:2]; C18 diacid = O=C(O)CCCCCCCCCCCCCCCCC(=O)*; γGlu = O=C(O)[C@H](CCC(=O)[*:2])N[*:1]; X3 = O=C(CN(Cc1c[nH]cn1)[*:1])[*:2]; αMeF = C[C@](N)(Cc1ccccc1)C(=O)O; AEEA = NCCOCCOCC(=O)O; Aib = CC(C)(N)C(=O)O

Target: human GLP-1 receptor (hGLP-1R) (Homo sapiens, UniProt P43220)
Test: cAMP production (HTRF) in CHO cells expressing hGLP-1R
Format: cell-based
Design: expressed in transfected cells
Settings: for % Relative Potency Ratio: % GLP-1R activity relative to GLP-1 / % GlucR activity relative to glucagon
Experimental: Cells were re-suspended in assay buffer at a batch-dependent optimized concentration (typically hGLP-1R cells at 1×10^5 cells/mL, hGCGR cells at 2×10^5 cells/mL).
Cells were added to the assay plate using a multidrop dispenser and incubated at room temperature for 30 minutes before measuring the cAMP level using a cAMP dynamic 2 homogeneous time resolved Fluorescence (HTRF) kit (Cisbio Bioassays #62AM4PEJ) following the two-step protocol as per manufacturer's recommendations. In brief, anti-cAMP cryptate (donor fluorophore) and cAMP-d2 (acceptor fluorophore) were made up separately by diluting each 1 in 20 in conjugate and lysis buffer provided in the kit. Anti-CAMP cryptate was added to all wells of the assay plate, followed by cAMP-d2 added to all wells except non-specific binding (NSB) wells (to which conjugate and lysis buffer was added).
Data was transformed to % Delta F as described in the manufacturer's guidelines and analyzed by 4-parameter logistic fit to determine EC50 values.

Chain of human GLP-1 receptor (hGLP-1R) (P43220 24-463): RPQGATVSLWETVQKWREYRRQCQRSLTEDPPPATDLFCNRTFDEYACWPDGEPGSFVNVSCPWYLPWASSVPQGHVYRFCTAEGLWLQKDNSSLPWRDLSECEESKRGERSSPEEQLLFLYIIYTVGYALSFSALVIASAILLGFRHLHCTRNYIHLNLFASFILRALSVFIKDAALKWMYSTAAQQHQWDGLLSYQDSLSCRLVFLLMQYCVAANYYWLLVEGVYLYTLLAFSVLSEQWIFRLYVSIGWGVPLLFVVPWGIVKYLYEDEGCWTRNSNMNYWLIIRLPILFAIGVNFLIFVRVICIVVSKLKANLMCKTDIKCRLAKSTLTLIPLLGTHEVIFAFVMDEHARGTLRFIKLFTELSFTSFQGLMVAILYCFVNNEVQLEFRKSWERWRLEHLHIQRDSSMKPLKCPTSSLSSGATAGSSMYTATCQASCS

% Relative Potency Ratio (Table 7): 0.4
Compound: CC[C@H](C)[C@H](NC(=O)[C@H](Cc1c[nH]c2ccccc12)NC(=O)[C@H](C)NC(=O)[C@@H](NC(=O)[C@](C)(Cc1ccccc1)NC(=O)[C@H](CC(=O)O)NC(=O)[C@H](CCCCNC(=O)COCCOCCNC(=O)COCCOCCNC(=O)CC[C@H](NC(=O)CCCCCCCCCCCCCCCCC(=O)O)C(=O)O)NC(=O)[C@H](C)NC(=O)[C@H](C)NC(=O)[C@H](CCCNC(=N)N)NC(=O)[C@H](CO)NC(=O)[C@H](CC(=O)O)NC(=O)[C@H](CC(C)C)NC(=O)[C@](C)(Cc1ccccc1)NC(=O)[C@H](CCCCN)NC(=O)[C@H](CO)NC(=O)[C@@H](NC(=O)[C@H](CC(=O)O)NC(=O)[C@H](CO)NC(=O)[C@@H](NC(=O)[C@](C)(Cc1ccccc1)NC(=O)[C@H](CO)NC(=O)CNC(=O)[C@H](Cc1c[nH]cn1)NC(=O)C(C)(C)NC(=O)[C@@H](N)Cc1c[nH]cn1)[C@@H](C)O)C(C)C)[C@@H](C)CC)C(=O)N[C@@H](C)C(=O)N[C@@H](CC(N)=O)C(=O)N[C@H](C(N)=O)[C@@H](C)O [Peptide 230] (H-H[Aib]HGS[αMeF]TSDVSK[αMeF]LDSRAAK([AEEA-AEEA-γGlu-C18 diacid])D[αMeF]IAWIANT-NH2)

% Relative Potency Ratio (Table 7): 2.9
Compound: CC[C@H](C)[C@H](NC(=O)C(C)(C)NC(=O)[C@H](CCC(N)=O)NC(=O)[C@@H](NC(=O)[C@](C)(Cc1ccccc1)NC(=O)[C@H](CC(=O)O)NC(=O)[C@H](CCCCNC(=O)COCCOCCNC(=O)COCCOCCNC(=O)CC[C@H](NC(=O)CCCCCCCCCCCCCCCCC(=O)O)C(=O)O)NC(=O)[C@H](C)NC(=O)[C@H](C)NC(=O)[C@H](CCCNC(=N)N)NC(=O)[C@H](CO)NC(=O)[C@H](CC(=O)O)NC(=O)[C@H](CC(C)C)NC(=O)[C@](C)(Cc1ccccc1)NC(=O)[C@H](CCCCN)NC(=O)[C@H](CO)NC(=O)[C@@H](NC(=O)[C@H](CC(=O)O)NC(=O)[C@H](CO)NC(=O)[C@@H](NC(=O)[C@](C)(Cc1ccccc1)NC(=O)[C@H](CO)NC(=O)CNC(=O)[C@@H](NC(=O)[C@H](CO)NC(=O)[C@@H](N)Cc1c[nH]cn1)C(C)(C)CC(N)=O)[C@@H](C)O)C(C)C)C(C)C)C(=O)N[C@@H](C)C(=O)N[C@@H](CC(N)=O)C(=O)N[C@H](C(N)=O)[C@@H](C)O [Peptide 324] (H-HS[X2]GS[αMeF]TSDVSK[αMeF]LDSRAAK([AEEA-AEEA-γGlu-C18 diacid])D[αMeF]VQ[Aib]IANT-NH2; N-terminus assumed)

% Relative Potency Ratio: 33.9
Compound: CC[C@H](C)[C@H](NC(=O)[C@H](Cc1c[nH]c2ccccc12)NC(=O)[C@H](CCCCNC(=O)COCCOCCNC(=O)COCCOCCNC(=O)CC[C@H](NC(=O)CC[C@H](NC(=O)CCCCCCCCCCCCCCCCCCC(=O)O)C(=O)O)C(=O)O)NC(=O)[C@@H](NC(=O)[C@H](Cc1ccccc1)NC(=O)[C@H](CC(=O)O)NC(=O)[C@H](CCC(N)=O)NC(=O)[C@H](C)NC(=O)[C@H](C)NC(=O)[C@H](CCCNC(=N)N)NC(=O)[C@H](CO)NC(=O)[C@H](CC(=O)O)NC(=O)[C@H](CC(C)C)NC(=O)[C@](C)(Cc1ccccc1)NC(=O)[C@H](CCCCN)NC(=O)[C@H](CO)NC(=O)[C@@H](NC(=O)[C@H](CC(=O)O)NC(=O)[C@H](CO)NC(=O)[C@@H](NC(=O)[C@](C)(Cc1ccccc1)NC(=O)[C@H](CO)NC(=O)CNC(=O)[C@H](Cc1c[nH]cn1)NC(=O)[C@H](CO)NC(=O)CNCc1c[nH]cn1)[C@@H](C)O)C(C)C)C(C)C)C(=O)N[C@@H](C)C(=O)N[C@@H](CC(N)=O)C(=O)N[C@H](C(N)=O)[C@@H](C)O [Peptide 380] (H-[X3]SHGS[αMeF]TSDVSK[αMeF]LDSRAAQDFVK([AEEA-AEEA-γGlu-γGlu-C20 diacid])WIANT-NH2)

% Relative Potency Ratio (Table 6): 4.4
Compound: CC(C)C[C@H](NC(=O)[C@H](Cc1c[nH]c2ccccc12)NC(=O)[C@H](CCCNC(=N)N)NC(=O)[C@@H](NC(=O)[C@H](Cc1ccccc1)NC(=O)[C@H](CC(=O)O)NC(=O)[C@H](CCC(N)=O)NC(=O)[C@H](C)NC(=O)[C@H](CCCNC(=N)N)NC(=O)[C@H](CCCCNC(=O)COCCOCCNC(=O)COCCOCCNC(=O)CC[C@H](NC(=O)CCCCCCCCCCCCCCCCCCC(=O)O)C(=O)O)NC(=O)[C@@H](NC(=O)[C@H](CC(=O)O)NC(=O)[C@H](CC(C)C)NC(=O)[C@](C)(Cc1ccccc1)NC(=O)[C@H](CCCCN)NC(=O)[C@H](CO)NC(=O)[C@@H](NC(=O)[C@H](CC(=O)O)NC(=O)[C@H](CO)NC(=O)[C@@H](NC(=O)[C@H](Cc1ccccc1)NC(=O)[C@@H](NC(=O)CNC(=O)[C@H](CCC(N)=O)NC(=O)C(C)(C)NC(=O)[C@@H](N)Cc1c[nH]cn1)[C@@H](C)O)[C@@H](C)O)C(C)C)[C@@H](C)O)C(C)C)C(=O)N[C@@H](CCC(=O)O)C(=O)N[C@@H](C)C(=O)NC(C)(C)C(=O)NCC(=O)O [Peptide 407]

The next lines start with the compound.

Compound: CC[C@H](C)[C@H](NC(=O)[C@H](Cc1c[nH]c2ccccc12)NC(=O)[C@H](CCCCNC(=O)CC[C@H](NC(=O)CC[C@H](NC(=O)CCOCCOCCNC(=O)CC[C@H](NC(=O)CC[C@H](NC(=O)CCCCCCCCCCCCCCCCCCC(=O)O)C(=O)O)C(=O)O)C(=O)O)C(=O)O)NC(=O)[C@@H](NC(=O)[C@H](Cc1ccccc1)NC(=O)[C@H](CC(=O)O)NC(=O)[C@H](CCC(N)=O)NC(=O)[C@H](C)NC(=O)[C@H](C)NC(=O)[C@H](CCC(N)=O)NC(=O)[C@H](CO)NC(=O)[C@H](CC(=O)O)NC(=O)[C@H](CC(C)C)NC(=O)[C@](C)(Cc1ccccc1)NC(=O)[C@H](CCCCN)NC(=O)[C@H](CO)NC(=O)[C@@H](NC(=O)[C@H](CC(=O)O)NC(=O)[C@H](CO)NC(=O)[C@@H](NC(=O)[C@](C)(Cc1ccccc1)NC(=O)[C@H](CO)NC(=O)CNC(=O)[C@H](Cc1c[nH]cn1)NC(=O)C(C)(C)NC(=O)[C@@H](N)Cc1c[nH]cn1)[C@@H](C)O)C(C)C)C(C)C)C(=O)N[C@@H](C)C(=O)N[C@@H](CC(N)=O)C(=O)N[C@H](C(N)=O)[C@@H](C)O [Peptide 357]
% Relative Potency Ratio: 1.2

Compound: CCCCCCCCCCCCCCCCCC(=O)N[C@@H](CCC(=O)N[C@@H](CCC(=O)NCCOCCOCCC(=O)NCCOCCOCCC(=O)NCCCC[C@H](NC(=O)[C@H](CC(=O)O)NC(=O)[C@H](CO)NC(=O)[C@@H](NC(=O)[C@](C)(Cc1ccccc1)NC(=O)[C@H](CO)NC(=O)CNC(=O)[C@H](CCC(N)=O)NC(=O)[C@H](CO)NC(=O)[C@@H](N)Cc1c[nH]cn1)[C@@H](C)O)C(=O)N[C@@H](CO)C(=O)N[C@@H](CCCCN)C(=O)N[C@H](C(=O)N[C@@H](CC(C)C)C(=O)N[C@@H](CC(=O)O)C(=O)N[C@@H](CO)C(=O)N[C@H](C(=O)N[C@@H](C)C(=O)N[C@@H](C)C(=O)N[C@@H](CCC(N)=O)C(=O)N[C@@H](CC(=O)O)C(=O)N[C@@](C)(Cc1ccccc1)C(=O)N[C@H](C(=O)N[C@@H](CCC(=O)O)C(=O)NC(C)(C)C(=O)N[C@@H](CC(C)C)C(=O)N[C@@H](C)C(=O)N[C@@H](CC(N)=O)C(=O)N[C@H](C(N)=O)[C@@H](C)O)C(C)C)C(C)(C)CCNC(=N)N)C(c1ccccc1)c1ccccc1)C(=O)O)C(=O)O [Peptide 393, HSQGS(αMePhe)TSDK((PEG)2-(PEG)2-γE-yE-Stearoyl)10SK(Dip)LDS(β-dimethylArg)AAQD(αMePhe)VE(Aib)LANT-amide]
% Relative Potency Ratio: 9.3

Compound: CC(C)C[C@H](NC(=O)[C@H](Cc1c[nH]c2ccccc12)NC(=O)[C@H](CCC(N)=O)NC(=O)[C@@H](NC(=O)[C@H](Cc1ccccc1)NC(=O)[C@H](CC(=O)O)NC(=O)[C@H](CCCNC(=N)N)NC(=O)[C@H](C)NC(=O)[C@H](CCCNC(=N)N)NC(=O)[C@H](CCCCNC(=O)COCCOCCNC(=O)COCCOCCNC(=O)CC[C@H](NC(=O)CCCCCCCCCCCCCCCCCCC(=O)O)C(=O)O)NC(=O)[C@@H](NC(=O)[C@H](CCC(=O)O)NC(=O)[C@H](CC(C)C)NC(=O)[C@](C)(Cc1ccccc1)NC(=O)[C@H](CCCCN)NC(=O)[C@H](CO)NC(=O)[C@@H](NC(=O)[C@H](CC(=O)O)NC(=O)[C@H](CO)NC(=O)[C@@H](NC(=O)[C@H](Cc1ccccc1)NC(=O)[C@@H](NC(=O)CNC(=O)[C@H](CCC(N)=O)NC(=O)C(C)(C)NC(=O)[C@@H](N)Cc1c[nH]cn1)[C@@H](C)O)[C@@H](C)O)C(C)C)[C@@H](C)O)C(C)C)C(=O)N[C@@H](CC(C)C)C(=O)N[C@@H](CCC(=O)O)C(=O)NC(C)(C)C(=O)NCC(=O)O [Peptide 444]
% Relative Potency Ratio (Table 6): 14.1

Compound: CC(C)C[C@H](NC(=O)[C@H](CC(C)C)NC(=O)[C@H](Cc1c[nH]c2ccccc12)NC(=O)[C@H](CCCNC(=N)N)NC(=O)[C@@H](NC(=O)[C@H](Cc1ccccc1)NC(=O)[C@H](CC(=O)O)NC(=O)[C@H](CCC(N)=O)NC(=O)[C@H](C)NC(=O)[C@H](CCCNC(=N)N)NC(=O)[C@H](CCCCNC(=O)COCCOCCNC(=O)COCCOCCNC(=O)CC[C@H](NC(=O)CCCCCCCCCCCCCCCCC(=O)O)C(=O)O)NC(=O)[C@H](CCCNC(=N)N)NC(=O)[C@H](CC(=O)O)NC(=O)[C@H](CC(C)C)NC(=O)[C@](C)(Cc1ccccc1)NC(=O)[C@H](CCCCN)NC(=O)[C@H](CO)NC(=O)[C@@H](NC(=O)[C@H](CC(=O)O)NC(=O)[C@H](CO)NC(=O)[C@@H](NC(=O)[C@H](Cc1ccccc1)NC(=O)[C@@H](NC(=O)CNC(=O)[C@H](CCC(N)=O)NC(=O)C(C)(C)NC(=O)[C@@H](N)Cc1c[nH]cn1)[C@@H](C)O)[C@@H](C)O)C(C)C)C(C)C)C(=O)N[C@@H](C)C(=O)N[C@@H](CCC(=O)O)C(N)=O [Peptide 461] (H-H[Aib]QGTFTSDVSK[αMeF]LDRK([AEEA-AEEA-γGlu-C18 diacid])RAQDFVRWLLAE-NH2; N-terminus assumed)
EC50 (Table 6, peptides modified at position 17, cAMP in CHO hGLP-1R cells, geometric mean, read-out: hGLP-1R EC50): 167 pM
